According to patent US12083196B2, “Personal cleansing compositions with surfactants for increased foam performance” (ECOLAB USA INC., priority 2020, dated 2024):

Assay: SITA Foam Analyzer foam decay
Format: physicochemical
Settings: single surfactant, 1%, FIG. 2
Text: The reagents used below include: • Alpha-Step® PC-48 is a C10-16 sodium methyl 2-sulfolaurate and disodium 2-sulfolaurate available from Stepan; • Stepan-Mild® L3 is a predominantly C12 reaction product of lauryl alcohol and lactic acid available from Stepan; • SLES is sodium laureth sulfate; • Cola® Teric is an amphoteric sultaine available from Colonial Chemical, Inc.; • Glucopon® […] is an alkyl polyglycoside available from BASF Corporation; • Suga® Nate is a sodium laurylglucosides hydrooxypropylsulfonate available from Colonial Chemicals, Inc; • Lathanol® LAL is a sodium lauryl sulfoacetate available from Stepan. […] To rename sample measurement files, right click on the open sample window, and click “save” to rename your sample file • 8) If an error occurs at any point with your sample, the measurement reading can be stopped by clicking the red square “Stop icon” or by pressing the large red button on the machine • 9) Organize the graph generated with the icons in the fourth section of the tool bar: create new plot, add/remove data from plot, change axis properties, and view properties. […] Right click to rename the plot, insert or remove the plot and display the foam buildup, foam decay, or both The foam decay time was also measured. […]

sodium laureth sulfate [SLES]
loss of foaming over 10 minutes: about 20 mL
